This note sets out measurements from ChEMBL document CHEMBL1153672, “Synthesis and biological activity of a novel class of cephalosporins with a oxadiazolyl hydroxypyridone moiety at C-7” (1995).

Type in all cases: functional
Test [1] concerns Pseudomonas aeruginosa. The test is described as follows: In vitro antibacterial activity against Pseudomonas aeruginosa IFO12689.
In a further test the test system is Staphylococcus aureus. In words: In vitro antibacterial activity against Staphylococcus aureus Smith.
The subject of test [2] is Pseudomonas aeruginosa. The test is described as follows: In vitro antibacterial activity against Pseudomonas aeruginosa E-2.
For another test, the system named is Escherichia coli. The test is described as follows: In vitro antibacterial activity against Escherichia coli ML4707.
The subject of test [3] is Mus musculus. The test is described as follows: Tested in vivo for the therapeutic efficacy against systemic infection caused by Pseudomonas aeruginosa E-2 in mice at a challenge dose of 8*10e4 (cfu/mouse) + 5%mucin.
For test [4], the system named is Mus musculus. In words: Tested in vivo for the therapeutic efficacy against systemic infection caused by Staphylococcus aureus Smith in mice at a challenge dose of 5*10e6 (cfu/mouse) + 5%mucin.
The species named for test [5] is Mus musculus. The test is described as follows: Tested for the therapeutic efficacy against systemic infection caused by Pseudomonas aeruginosa E-2 in mice at a challenge dose of 7.9*10e4 (cfu/mouse) + 5%mucin.
In test [6] the test system is Mus musculus. In words: Tested in vivo for the therapeutic efficacy against systemic infection caused by Staphylococcus aureus Smith in mice at a challenge dose of 3.3*10e6 (cfu/mouse) + 5%mucin.
Test [7] concerns Pseudomonas aeruginosa. In words: In vitro for the antibacterial activity against Pseudomonas aeruginosa E-2.

Converted amounts (≈) assume the structure as drawn. Some results are limits rather than exact numbers.

Regarding `Nc1nc(/C(=N/OCCSc2nnc(-c3cc(O)c(O)cn3)o2)C(=O)N[C@@H]2C(=O)N3C(C(=O)[O-])=C(C[n+]4ccc(C(=O)[O-])cc4)CS[C@H]23)cs1.[Na+]`, the MIC – broadly, the lowest concentration found to suppress growth – was 0.39 µg/mL in the test on Pseudomonas aeruginosa [1], 25 µg/mL with Staphylococcus aureus, 3.13 µg/mL against Pseudomonas aeruginosa [2] and 0.0125 µg/mL against Escherichia coli.
Regarding `Nc1nc(/C(=N/OCCSc2nnc(-c3cc(O)c(O)cn3)o2)C(=O)N[C@@H]2C(=O)N3C(C(=O)[O-])=C(CSc4cc[n+](CC(=O)[O-])cc4)CS[C@H]23)cs1.[Na+]`, the minimal inhibitory concentration (MIC) was 0.39 µg/mL with Pseudomonas aeruginosa [1], 12.5 µg/mL in the test on Staphylococcus aureus, 1.56 µg/mL in the test with Pseudomonas aeruginosa [2] and no more than 0.0063 µg/mL with Escherichia coli. For the same compound, the ED50 (usually the midpoint of the dose-response relation) in the test with Mus musculus [3] turned out to be 25 mg/kg.
As for `Nc1nc(/C(=N/OCCSc2nnc(-c3cc(O)c(O)cn3)o2)C(=O)[N-][C@@H]2C(=O)N3C(C(=O)[O-])=C(C[n+]4ccccc4)CS[C@H]23)cs1.[Na+]`, the MIC against Pseudomonas aeruginosa [1] is 0.78 µg/mL; with Staphylococcus aureus, 3.13 µg/mL; in the test on Pseudomonas aeruginosa [2], 3.13 µg/mL; against Escherichia coli it was 0.025 µg/mL.
With `CC[n+]1ccc(SCC2=C(C(=O)[O-])N3C(=O)[C@@H]([N-]C(=O)/C(=N\OCCSc4nnc(-c5cc(O)c(O)cn5)o4)c4csc(N)n4)[C@H]3SC2)cc1.[Na+]`, the MIC against Pseudomonas aeruginosa [1] is 0.78 µg/mL; in the test on Staphylococcus aureus it was 3.13 µg/mL; in the test with Pseudomonas aeruginosa [2] it was 0.39 µg/mL; against Escherichia coli, no more than 0.0063 µg/mL. Also, the ED50 in the test on Mus musculus [3] was 19 mg/kg; in the test on Mus musculus [4], less than 0.6 mg/kg.
For the compound `CN(C)CC[n+]1ccc(SCC2=C(C(=O)[O-])N3C(=O)[C@@H]([N-]C(=O)/C(=N\OCCSc4nnc(-c5cc(O)c(O)cn5)o4)c4csc(N)n4)[C@H]3SC2)cc1.[Na+]`, the MIC in the test with Pseudomonas aeruginosa [1] turned out to be 3.13 µg/mL; in the test on Staphylococcus aureus, 6.25 µg/mL; against Pseudomonas aeruginosa [2] it was 0.78 µg/mL; in the test on Escherichia coli it was 0.025 µg/mL.
Consider `Nc1nc(/C(=N/OCc2cc(O)c(O)cn2)C(=O)[N-][C@@H]2C(=O)N3C(C(=O)[O-])=C(CSc4cc[n+](CCO)cc4)CS[C@H]23)cs1.[Na+]`, for which the ED50 was greater than 40 mg/kg in the test filed under Mus musculus [5] and 0.86 mg/kg in the test with Mus musculus [6]. The MIC in the test on Staphylococcus aureus amounted to 3.13 µg/mL; with Pseudomonas aeruginosa [7], 6.25 µg/mL.
Consider `Nc1nc(/C(=N/OCCSc2nnc(-c3ccccn3)o2)C(=O)[N-][C@@H]2C(=O)N3C(C(=O)[O-])=C(CSc4cc[n+](CCO)cc4)CS[C@H]23)cs1.[Na+]`, for which the values for the ED50 in the test listed under Mus musculus [5] and in the test on Mus musculus [6] were greater than 40 mg/kg and 0.43 mg/kg, respectively. In addition, the MIC was found to be 0.39 µg/mL against Staphylococcus aureus and 100 µg/mL in the test on Pseudomonas aeruginosa [7].
On to `NC(=O)c1cc[n+](CC2=C(C(=O)[O-])N3C(=O)[C@@H]([N-]C(=O)/C(=N\OCCSc4nnc(-c5cc(O)c(O)cn5)o4)c4csc(N)n4)[C@H]3SC2)cc1.[Na+]`, for which the MIC with Pseudomonas aeruginosa [1] was determined as 1.56 µg/mL; with Staphylococcus aureus it was 6.25 µg/mL; against Pseudomonas aeruginosa [2], 3.13 µg/mL; against Escherichia coli it was 0.025 µg/mL.
Consider `Nc1nc(/C(=N/OCCSc2nnc(-c3ccc(O)c(O)c3)o2)C(=O)[N-][C@@H]2C(=O)N3C(C(=O)[O-])=C(CSc4cc[n+](CCO)cc4)CS[C@H]23)cs1.[Na+]`, for which the ED50 in the test filed under Mus musculus [5] was 34 mg/kg; in the test with Mus musculus [6], 0.86 mg/kg. For the same compound, the MIC against Staphylococcus aureus and in the test with Pseudomonas aeruginosa [7] was 0.39 µg/mL in each case.
Consider `Nc1nc(/C(=N/OCCSc2nnc(-c3cc(O)c(O)cn3)o2)C(=O)[N-][C@@H]2C(=O)N3C(C(=O)[O-])=C(CSc4cc[n+](CCO)cc4)CS[C@H]23)cs1.[Na+]`, for which the MIC against Pseudomonas aeruginosa [1] was 0.78 µg/mL; in the test with Staphylococcus aureus it was 3.13 µg/mL; with Pseudomonas aeruginosa [2], 0.39 µg/mL; against Escherichia coli, no more than 0.0063 µg/mL. Also, the ED50 in the test listed under Mus musculus [5] was 7.2 mg/kg; in the test on Mus musculus [3], 4.2 mg/kg; with Mus musculus [6] it was 0.86 mg/kg; with Mus musculus [4], less than 0.3 mg/kg.
`Nc1nc(/C(=N/OCCSc2nnc(-c3cc(O)c(O)cn3)o2)C(=O)[N-][C@@H]2C(=O)N3C(C(=O)[O-])=C(C[n+]4ccc(SCCO)cc4)CS[C@H]23)cs1.[Na+]`: the MIC in the test with Pseudomonas aeruginosa [1] was found to be 0.78 µg/mL; in the test on Staphylococcus aureus, 3.13 µg/mL; against Pseudomonas aeruginosa [2] it was 0.78 µg/mL; with Escherichia coli, 0.0125 µg/mL.
Regarding `Nc1nc(/C(=N/OCCSc2nnc(-c3cc(O)c(O)cn3)o2)C(=O)N[C@@H]2C(=O)N3C(C(=O)[O-])=C(CSc4nc5ccccc5s4)CS[C@H]23)cs1.[Na+]`, the MIC in the test with Pseudomonas aeruginosa [1] was found to be 0.78 µg/mL; with Staphylococcus aureus, 3.13 µg/mL; in the test with Pseudomonas aeruginosa [2], 0.78 µg/mL; in the test with Escherichia coli, 0.0125 µg/mL. The ED50 in the test with Mus musculus [3] is greater than 100 mg/kg.
Take `Cc1cc(SCC2=C(C(=O)[O-])N3C(=O)[C@@H](NC(=O)/C(=N\OCCSc4nnc(-c5cc(O)c(O)cn5)o4)c4csc(N)n4)[C@H]3SC2)n2nc(CO)nc2n1.[Na+]`: the MIC was 0.39 µg/mL with Pseudomonas aeruginosa [1], 6.25 µg/mL with Staphylococcus aureus, 0.2 µg/mL with Pseudomonas aeruginosa [2] and less than 0.0063 µg/mL in the test with Escherichia coli.
Consider `Nc1nc(/C(=N/OCCSc2nnc(-c3cc(O)c(O)cn3)o2)C(=O)N[C@@H]2C(=O)N3C(C(=O)[O-])=C(CSc4nnc(-c5ccncc5)o4)CS[C@H]23)cs1.[Na+]`, for which the MIC in the test on Pseudomonas aeruginosa [1] was 0.39 µg/mL; in the test on Staphylococcus aureus, 6.25 µg/mL; in the test on Pseudomonas aeruginosa [2], 0.78 µg/mL; in the test on Escherichia coli, no more than 0.0063 µg/mL.
`Nc1nc(/C(=N/OCCSc2nnc(-c3cc(O)c(O)cn3)o2)C(=O)N[C@@H]2C(=O)N3C(C(=O)[O-])=C(CSc4nnc(N)s4)CS[C@H]23)cs1.[Na+]`: the MIC with Pseudomonas aeruginosa [1] was 0.2 µg/mL; against Staphylococcus aureus it was 6.25 µg/mL; against Pseudomonas aeruginosa [2] it was 0.2 µg/mL; against Escherichia coli it was no more than 0.0063 µg/mL. In addition, the ED50 in the test on Mus musculus [3] is 35 mg/kg; in the test on Mus musculus [4] it was greater than 20 mg/kg.
For the compound `Nc1nc(/C(=N/OCCSc2nnc(-c3cc(O)c(O)cn3)o2)C(=O)N[C@@H]2C(=O)N3C(C(=O)[O-])=C(CSc4ccccn4)CS[C@H]23)cs1.[Na+]`, the MIC was 0.039 µg/mL in the test on Pseudomonas aeruginosa [1], 6.25 µg/mL in the test with Staphylococcus aureus, 0.39 µg/mL against Pseudomonas aeruginosa [2] and no more than 0.0063 µg/mL with Escherichia coli.
Consider `Nc1nc(/C(=N/OCCSc2nnc(-c3cc(O)c(O)cn3)o2)C(=O)N[C@@H]2C(=O)N3C(C(=O)[O-])=C(CSc4cnns4)CS[C@H]23)cs1.[Na+]`, for which the MIC against Pseudomonas aeruginosa [1] was 0.2 µg/mL; in the test with Staphylococcus aureus, 3.13 µg/mL; in the test with Pseudomonas aeruginosa [2], 0.78 µg/mL; against Escherichia coli, no more than 0.0063 µg/mL.
As for `CO/N=C(\C(=O)N[C@@H]1C(=O)N2C(C(=O)O)=C(COC(C)=O)CS[C@H]12)c1csc(N)n1` [CEFOTAXIME], the MIC in the test with Pseudomonas aeruginosa [1] is 25 µg/mL (≈ 54.9 µM); with Staphylococcus aureus it was 1.56 µg/mL (≈ 3.43 µM); in the test with Pseudomonas aeruginosa [2], 25 µg/mL (≈ 54.9 µM); in the test on Escherichia coli, 0.0125 µg/mL (≈ 0.0274 µM). Further, the results for the ED50 with Mus musculus [6] and with Mus musculus [4] were 3 mg/kg and 4.6 mg/kg, respectively.
`CO/N=C(\C(=O)N[C@@H]1C(=O)N2C(C(=O)[O-])=C(C[n+]3cccc4c3CCC4)CS[C@H]12)c1csc(N)n1` [CEFPIROME]: the ED50 in the test with Mus musculus [6] came to 1.5 mg/kg.
For `CC(C)(O/N=C(\C(=O)N[C@@H]1C(=O)N2C(C(=O)[O-])=C(C[n+]3ccccc3)CS[C@H]12)c1csc(N)n1)C(=O)O` [CEFTAZIDIME], the minimal inhibitory concentration (MIC) in the test with Pseudomonas aeruginosa [1] was 3.13 µg/mL (≈ 5.73 µM); in the test with Staphylococcus aureus, 3.13 µg/mL (≈ 5.73 µM); against Pseudomonas aeruginosa [2] it was 1.56 µg/mL (≈ 2.85 µM); against Escherichia coli, 0.05 µg/mL (≈ 0.0915 µM). The ED50 was greater than 100 mg/kg in the test listed under Mus musculus [5], 55 mg/kg with Mus musculus [3] and 8.1 mg/kg in the test on Mus musculus [4].
